One data set addresses EZH2 enzyme complex (Homo sapiens (Human), UniProt Q15910). Put plainly: Test on EZH2 inhibitory activity (TR-FRET). As to conditions: EZH2 enzyme complex 25 ng/uL, histone H3 peptide 4 uM, SAM 2 uM, 300 min; read-out: IC50 of EZH2 inhibition. The data set is classed as biochemical. Background: TR-FRET usually uses a lanthanide donor and a delayed reading to cut background.
Data set [1] can be described thus: In vivo pharmacokinetic properties in mice. The following applies: male ICR mice; for F: intragastric 250 mg/kg vs intravenous 5 mg/kg; for CL / AUC(0-inf) / Cmax / Tmax / half-life: single intravenous 5 mg/kg and intragastric 250 mg/kg study; for AUC(0-inf) / Cmax / Tmax / half-life: mouse, plasma; for AUC(0-inf) / Cmax / Tmax: oral; for Cmax: read-out: Cmax; for Tmax: read-out: Tmax. Set-up: species or system mouse. Here is the method:
Male ICR mice were divided into different groups with 3 mice in each group, and single intravenous injection and single intragastric administration were conducted respectively. The compounds were formulated with 10% DMSO/90% (20% Captisol) to reach an appropriate concentration and then administered intravenously at 5 mg/kg. The compounds were formulated with 0.5% CMC-Na/0.1% Tween 80 (pH=3-4) to reach an appropriate concentration and then administered intragastrically at 250 mg/kg. Blood was taken at 5 min, 15 min, 30 min, 1 h, 2 h, 4 h, 6 h, 8 h and 24 h after administration, and then subjected to EDTA-K2 anticoagulation. The concentration of the compound in the plasma was quantitatively detected by an LC-MS/MS method.

Each structure is given as a SMILES string. Where only a bound is given, the exact number is not on record here.

EZH2 enzyme complex, sequence (Q15910 whole entry): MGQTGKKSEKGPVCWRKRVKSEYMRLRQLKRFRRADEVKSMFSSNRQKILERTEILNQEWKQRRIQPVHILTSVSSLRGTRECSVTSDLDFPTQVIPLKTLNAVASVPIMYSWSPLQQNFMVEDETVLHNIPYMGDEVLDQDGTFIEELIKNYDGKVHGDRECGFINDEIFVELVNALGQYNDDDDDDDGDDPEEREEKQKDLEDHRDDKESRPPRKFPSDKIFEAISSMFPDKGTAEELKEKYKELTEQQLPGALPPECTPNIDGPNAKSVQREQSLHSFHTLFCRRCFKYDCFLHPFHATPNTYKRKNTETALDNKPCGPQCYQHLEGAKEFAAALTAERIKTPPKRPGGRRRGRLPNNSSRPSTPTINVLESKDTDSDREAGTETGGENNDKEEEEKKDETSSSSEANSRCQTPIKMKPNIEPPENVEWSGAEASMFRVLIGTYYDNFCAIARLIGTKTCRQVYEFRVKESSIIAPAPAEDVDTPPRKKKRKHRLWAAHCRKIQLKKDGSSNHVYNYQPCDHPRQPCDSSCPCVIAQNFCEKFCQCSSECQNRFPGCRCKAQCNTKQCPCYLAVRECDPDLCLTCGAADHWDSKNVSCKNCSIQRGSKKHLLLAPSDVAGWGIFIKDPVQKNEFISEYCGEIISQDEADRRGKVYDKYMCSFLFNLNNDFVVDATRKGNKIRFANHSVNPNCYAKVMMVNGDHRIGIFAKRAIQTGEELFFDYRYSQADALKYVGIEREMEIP
EZH2 enzyme complex, sequence (O75530 whole entry partner): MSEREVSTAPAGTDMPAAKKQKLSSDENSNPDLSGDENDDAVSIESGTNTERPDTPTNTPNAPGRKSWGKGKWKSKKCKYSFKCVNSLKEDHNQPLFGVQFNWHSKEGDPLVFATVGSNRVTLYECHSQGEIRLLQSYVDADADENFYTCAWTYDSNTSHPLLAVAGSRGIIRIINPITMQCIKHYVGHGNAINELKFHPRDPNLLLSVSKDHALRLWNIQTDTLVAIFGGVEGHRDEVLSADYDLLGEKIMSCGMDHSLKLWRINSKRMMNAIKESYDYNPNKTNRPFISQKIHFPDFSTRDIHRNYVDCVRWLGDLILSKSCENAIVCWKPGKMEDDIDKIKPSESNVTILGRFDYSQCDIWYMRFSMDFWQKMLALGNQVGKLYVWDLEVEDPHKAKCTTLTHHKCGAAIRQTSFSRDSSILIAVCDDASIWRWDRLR
EZH2 enzyme complex, sequence (Q15022 whole entry partner): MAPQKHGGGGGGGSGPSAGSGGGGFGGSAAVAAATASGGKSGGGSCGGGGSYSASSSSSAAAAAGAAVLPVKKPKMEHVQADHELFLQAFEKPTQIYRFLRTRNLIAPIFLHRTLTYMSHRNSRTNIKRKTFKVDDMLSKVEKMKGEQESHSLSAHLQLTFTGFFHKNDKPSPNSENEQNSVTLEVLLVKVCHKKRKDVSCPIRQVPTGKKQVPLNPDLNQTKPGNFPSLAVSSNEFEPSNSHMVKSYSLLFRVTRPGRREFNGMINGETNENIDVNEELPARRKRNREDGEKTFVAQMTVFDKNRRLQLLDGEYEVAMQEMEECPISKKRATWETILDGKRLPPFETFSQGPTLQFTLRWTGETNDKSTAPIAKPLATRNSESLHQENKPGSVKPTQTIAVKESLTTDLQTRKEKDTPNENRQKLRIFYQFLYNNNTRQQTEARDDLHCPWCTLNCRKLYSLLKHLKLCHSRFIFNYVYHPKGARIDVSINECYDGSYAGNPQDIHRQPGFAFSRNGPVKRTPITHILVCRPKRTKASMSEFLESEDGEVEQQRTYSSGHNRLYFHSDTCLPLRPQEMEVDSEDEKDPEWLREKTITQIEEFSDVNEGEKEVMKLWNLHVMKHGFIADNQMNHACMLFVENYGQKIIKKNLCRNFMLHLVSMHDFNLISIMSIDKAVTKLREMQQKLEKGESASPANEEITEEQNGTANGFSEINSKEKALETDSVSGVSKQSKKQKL
Description for EZH2 enzyme complex: • EZH2 enzyme complex: 25 ng/uL • Histone H3 peptide substrate: 4 uM • SAM: 2 uM • Reaction time: 300 min Procedures • 1. Each compound disclosed herein was diluted with 1×HMT buffer and transferred to a 384-well assay plate at 3 uL per well; • 2. The EZH2 enzyme solution was prepared with 1×HMT buffer and transferred to the 384-well assay plate at 2 uL per well; • 3. The above assay plate was incubated for 30 min; • 4. A mixture solution of SAM and histone H3 peptide substrate at 2-fold concentration was prepared with 4×HMT buffer; • 5. 5 uL of the mixture solution of SAM and substrate was added to each well of the assay plate to react at room temperature, and the assay plate was sealed with plastic; • 6. After incubation for 5 h, 10 uL of TR-FRET detection buffer containing Tb-labeled antibody and dye-labeled receptor was added to each well of the assay plate; • 7. After incubation for 1 h at room temperature, the assay plate was detected; • 8.

For `Cc1cc(C)c(CNC(=O)c2cc(OC3CCC3)cc(OC3CCOCC3)c2C)c(=O)[nH]1` [Example 5, 5-cyclobutoxy-N-((4,6-dimethyl-2-oxo-1,2-dihydropyridin-3-yl)methyl)-2-methyl-3-((tetrahydro-2H-pyran-4-yl)oxy)benzamide], the IC50 (as a rule, the point on the concentration scale where inhibition reaches its midpoint) on EZH2 enzyme complex is 0.1 to 1 µM.
On to `CCN(c1cc(O[C@H]2C[C@H](CN3CCOCC3)C2)cc(C(=O)NCc2c(C)cc(C)[nH]c2=O)c1C)[C@H]1CC[C@H](N(C)CCOC)CC1` [Example 32, N-((4,6-dimethyl-2-oxo-1,2-dihydropyridin-3-yl)methyl)-3-(ethyl(trans-4-((2-methoxyethyl)(methyl)amino)cyclohexyl)amino)-2-methyl-5-(trans-3-(morpholinylmethyl)cyclobutoxy)benzamide], for which the IC50 on EZH2 enzyme complex was in the range of 0.01 to 0.1 µM.
The same measure, in the same setting: to `CCN(c1cc(O[C@H]2C[C@@H](N3CCOCC3)C2)cc(C(=O)NCc2c(C)cc(C)[nH]c2=O)c1Cl)C1CCOCC1` [Example 40, 2-chloro-N-((4,6-dimethyl-2-oxo-1,2-dihydropyridin-3-yl)methyl)-3-(ethyl(tetrahydro-2H-pyran-4-yl)amino)-5-(cis-3-morpholinylcyclobutoxy)benzamide] belongs 0.01 to 0.1 µM; to `CCN(c1cc(O[C@H]2C[C@H](N3CCOCC3)C2)cc(C(=O)NCc2c(C)cc(C)[nH]c2=O)c1Cl)C1CCOCC1` [Example 41, 2-chloro-N-((4,6-dimethyl-2-oxo-1,2-dihydropyridin-3-yl)methyl)-3-(ethyl(tetrahydro-2H-pyran-4-yl)amino)-5-(trans-3-morpholinylcyclobutoxy)benzamide], 0.01 to 0.1 µM; to `CCN(c1cc(O[C@H]2C[C@@H](N3CCNCC3)C2)cc(C(=O)NCc2c(C)cc(C)[nH]c2=O)c1Cl)C1CCOCC1` [Example 42, 2-chloro-N-((4,6-dimethyl-2-oxo-1,2-dihydropyridin-3-yl)methyl)-3-(ethyl(tetrahydro-2H-pyran-4-yl)amino)-5-(cis-3-(piperazin-1-yl)cyclobutoxy)benzamide], 0.01 to 0.1 µM.
For `CCN(c1cc(O[C@H]2C[C@H](N3CCNCC3)C2)cc(C(=O)NCc2c(C)cc(C)[nH]c2=O)c1Cl)C1CCOCC1` [Example 43, 2-chloro-N-((4,6-dimethyl-2-oxo-1,2-dihydropyridin-3-yl)methyl)-3-(ethyl(tetrahydro-2H-pyran-4-yl)amino)-5-(trans-3-(piperazin-1-yl)cyclobutoxy)benzamide], at EZH2 enzyme complex, the IC50 fell in the range of 0.01 to 0.1 µM.
Same read-out and setting: the result for `CCN(c1cc(O[C@H]2C[C@H](N3C[C@@H](C)O[C@@H](C)C3)C2)cc(C(=O)NCc2c(C)cc(C)[nH]c2=O)c1C)C1CCOCC1` [Example 44, N-((4,6-dimethyl-2-oxo-1,2-dihydropyridin-3-yl)methyl)-5-(trans-3-(cis-2,6-dimethylmorpholinyl)cyclobutoxy)-3-(ethyl(tetrahydro-2H-pyran-4-yl)amino)-2-methylbenzamide] reads 0.01 to 0.1 µM; that for `CCN(c1cc(O[C@H]2C[C@H](N3C[C@@H](C)O[C@@H](C)C3)C2)cc(C(=O)NCc2c(C)cc(C)[nH]c2=O)c1C)C1CCN(CC(F)(F)F)CC1` [Example 50, N-((4,6-dimethyl-2-oxo-1,2-dihydropyridin-3-yl)methyl)-5-(trans-3-(cis-2,6-dimethylmorpholinyl)cyclobutoxy)-3-(ethyl (1-(2,2,2-trifluoroethyl)piperidin-4-yl)amino)-2-methylbenzamide], 0.01 to 0.1 µM; that for `CCN(c1cc(O[C@H]2C[C@H](N3CC4CC(C3)O4)C2)cc(C(=O)NCc2c(C)cc(C)[nH]c2=O)c1C)C1CCOCC1` [Example 54, 5-(trans-3-(6-oxa-3-azabicyclo[3.1.1]heptan-3-yl)cyclobutoxy)-N-((4,6-dimethyl-2-oxo-1,2-dihydropyridin-3-yl)methyl)-3-(ethyl(tetrahydro-2H-pyran-4-yl)amino)-2-methylbenzamide], 0.01 to 0.1 µM.
On the same count and under the same terms, the result for `CCN(c1cc(O[C@H]2C[C@H](CN3CCOCC3)C2)cc(C(=O)NCc2c(C)cc(C)[nH]c2=O)c1F)C1CCOCC1` [Example 61, N-((4,6-dimethyl-2-oxo-1,2-dihydropyridin-3-yl)methyl)-3-(ethyl(tetrahydro-2H-pyran-4-yl)amino)-2-fluoro-5-(trans-3-(morpholinomethyl)cyclobutoxy)benzamide] reads over 1 µM; that for `CCN(c1cc(O[C@H]2C[C@H](N3CCOCC3)C2)cc(C(=O)NCc2c(C)cc(C)[nH]c2=O)c1C)C1CCOC1` (stereo partly drawn) [Example 64, N-((4,6-dimethyl-2-oxo-1,2-dihydropyridin-3-yl)methyl)-3-(ethyl(tetrahydrofuran-3-yl)amino)-2-methyl-5-(trans-3-morpholin-4-ylcyclobutoxy)benzamide], 0.01 to 0.1 µM.
Regarding `CCN(c1cc(O[C@H]2C[C@H](N3CCCCC3)C2)cc(C(=O)NCc2c(C)cc(C)[nH]c2=O)c1Cl)C1CCOCC1` [Example 66, 2-chloro-N-((4,6-dimethyl-2-oxo-1,2-dihydropyridin-3-yl)methyl)-3-(ethyl(tetrahydro-2H-pyran-4-yl)amino)-5-(trans-3-(piperidin-1-yl)cyclobutoxy)benzamide], in data set [1], the F was 38.3%; the CL came out at 53.5 ± 13.44 mL/min/lg; the AUC(0-inf) (usually total exposure, with the tail of the curve extrapolated) is 31200 ng·h/mL; the Cmax (in general, the peak of the concentration-time curve) was found to be 16700 ± 4970 ng/mL. In addition, in data set [1], the Tmax (usually the time from dosing to the highest level) is 0.42 ± 0.14 h and the half-life (commonly the time in which the quantity being followed falls by half) is 5.05 ± 0.75 h.
On to `CCN(c1cc(C2CC2CN2CCN(C)CC2)cc(C(=O)NCc2c(C)cc(C)[nH]c2=O)c1C)[C@H]1CC[C@H](N(C)CCOC)CC1` (stereo partly drawn) [Example 81, N-((4,6-dimethyl-2-oxo-1,2-dihydropyridin-3-yl)methyl)-3-(ethyl(trans-4-((2-methoxyethyl)(methyl)amino)cyclohexyl)amino)-2-methyl-5-(2-((4-methylpiperazin-1-yl)methyl)cyclopropyl)benzamide], for which the IC50 at EZH2 enzyme complex was 0.01 to 0.1 µM.
Regarding `CCN(c1cc(C2CC2CN2CCOCC2)cc(C(=O)NCc2c(C)cc(C)[nH]c2=O)c1Cl)C1CCOCC1` (stereo not drawn) [Example 84, 2-chloro-N-((4,6-dimethyl-2-oxo-1,2-dihydropyridin-3-yl)methyl)-3-(ethyl(tetrahydro-2H-pyran-4-yl)amino)-5-(2-(morpholinylmethyl)cyclopropyl)benzamide], the IC50 on EZH2 enzyme complex was 0.1 to 1 µM.
In the case of `CCN(c1cc(O[C@H]2C[C@H](N3CCOCC3)C2)cc(C(=O)NCc2c(C)cc(C)[nH]c2=O)c1C)C1CC2CCC(C1)O2` (stereo partly drawn) [Example 86], in data set [1], the F turned out to be 29.5%, the CL worked out at 65.5 ± 1.60 mL/min/lg, the AUC(0-inf) was found to be 18800 ± 4560 ng·h/mL and the Cmax was determined as 21000 ± 8040 ng/mL. In data set [1], the Tmax amounted to 0.25 h and the half-life is 4.19 ± 3.07 h.
`CCN(c1cc(O[C@H]2C[C@H](N3CCC(C)CC3)C2)cc(C(=O)NCc2c(OC)cc(C)[nH]c2=O)c1Cl)C1CCOCC1` [Example 89]: the IC50 on EZH2 enzyme complex fell in the range of 0.01 to 0.1 µM.
The same measure, in the same setting: to `CCN(c1cc(O[C@H]2C[C@H](N3CCC(C)CC3)C2)cc(C(=O)NCc2c(C)cc(C(F)(F)F)[nH]c2=O)c1Cl)C1CCOCC1` [Example 90] belongs over 1 µM.
